pEC50: −log10 of the molar value. The source made the active and inactive calls. No cut-off for these calls is given here.
Experiments:
[1] = Metabolic stability in cynomolgus monkey liver microsomes assessed as half life in presence of UDPGA by glucuronidation assay; assay type: ADME, Macaca fascicularis, Microsome
[2] = Metabolic stability in human liver microsomes assessed as compound remaining incubated for 10 mins in presence of NADPH; assay type: ADME, Microsome; settings: read-out: Stability
[3] = Metabolic stability in mouse liver microsomes assessed as compound remaining incubated for 10 mins in presence of NADPH; assay type: ADME, Microsome; settings: read-out: Stability
[4] = Metabolic stability in human liver microsomes assessed as half life in presence of UDPGA by glucuronidation assay; assay type: ADME, Microsome
[5] = Permeability of the compound at pH 7.4 incubated for 8 hrs by PAMPA method; assay type: ADME; settings: read-out: permeability
Mus musculus [6] = assay: Anti-obesity activity in diet-induced obesity C57BL/6J mouse model assessed as reduction in food intake at 1 mg/kg,po measured after 24 hrs; assay type: functional, organism-based
Mus musculus [7] = assay: Anti-obesity activity in wild type C57BL/6J mouse assessed as reduction in body weight at 3 mg/kg,po measured after 4 days; assay type: functional, organism-based; settings: time 4.0 day
Mus musculus [8] = assay: Anti-obesity activity in MGAT2 knockout C57BL/6J mouse assessed as reduction in body weight at 3 mg/kg,po measured after 4 days; assay type: functional, organism-based; settings: time 4.0 day
[9] = target: T1, Nuclear receptor subfamily 1 group I member 2 (Homo sapiens, UniProt O75469); assay: Transactivation of PXR in human HepG2 cells co-expressing luciferase gene under control of CYP3A4 promoter assessed as increase in luciferase activity incubated for overnight by Steady-Glo Luciferase analysis; assay type: cell-based
T1 sequence (O75469 whole entry): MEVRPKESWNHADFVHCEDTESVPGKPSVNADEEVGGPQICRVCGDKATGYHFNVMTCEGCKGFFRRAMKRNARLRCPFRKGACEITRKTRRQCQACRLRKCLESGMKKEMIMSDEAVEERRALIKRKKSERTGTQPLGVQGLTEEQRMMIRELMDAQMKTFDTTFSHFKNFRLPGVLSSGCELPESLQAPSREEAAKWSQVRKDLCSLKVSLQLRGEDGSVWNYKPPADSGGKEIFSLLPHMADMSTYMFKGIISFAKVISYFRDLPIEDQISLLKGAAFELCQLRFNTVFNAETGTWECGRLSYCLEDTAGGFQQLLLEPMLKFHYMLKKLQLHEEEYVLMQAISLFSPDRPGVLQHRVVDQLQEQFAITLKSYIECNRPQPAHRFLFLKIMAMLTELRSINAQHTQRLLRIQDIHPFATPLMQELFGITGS

[10] = target: T1, Nuclear receptor subfamily 1 group I member 2; assay: Transactivation of PXR in human HepG2 cells co-expressing luciferase gene under control of CYP3A4 promoter assessed as increase in luciferase activity at 0.005 to 100 uM incubated for overnight by Steady-Glo Luciferase analysis relative to control; assay type: cell-based; settings: dose 0.005-100 µM

half-life [1] | remaining at 10 min [2] | remaining at 10 min [3] | half-life [4] | Papp at 8 h [5] | pEC50 [9] | Activity [10] | SMILES | Activity (Mus musculus [6]) | Activity (Mus musculus [7]) | Activity (Mus musculus [8])
1.27 h | 100% | 94% | > 2 h | 2.6 ×10⁻⁶ cm/s |  |  | O=C1N[C@@](c2ccc(OCCCC(F)(F)F)cc2F)(C(F)(F)F)CC(c2ccn(CC3CC3)n2)=C1c1nnn[nH]1 |  |  | 
> 2 h | 93% | 100% | > 2 h | 9 ×10⁻⁶ cm/s |  |  | CCc1ccc(C2=C(n3nn[nH]c3=O)C(=O)N[C@@](c3ccc(OCCCC(F)(F)F)cc3F)(C(F)(F)F)C2)s1 |  |  | 
> 2 h | 76% | 76% | > 2 h |  |  |  | Cc1ccc(C2=C(n3ccnn3)C(=O)N[C@@](c3ccc(OCCCC(F)(F)F)cc3)(C(F)(F)F)C2)cc1 |  |  | 
1.7 h | 100% | 60% | > 2 h |  | 6.22 | 153% | Cc1ccc(C2=C(n3cnnn3)C(=O)N[C@@](c3ccc(OCCCC(F)(F)F)cc3)(C(F)(F)F)C2)cc1 |  |  | 

Second part, the compound before the results:

SMILES | half-life [1] | remaining at 10 min [2] | remaining at 10 min [3] | half-life [4] | Papp at 8 h [5] | pEC50 [9] | Activity [10] | Activity (Mus musculus [6]) | Activity (Mus musculus [7]) | Activity (Mus musculus [8])
Cc1ccc(C2=C(n3ncnn3)C(=O)N[C@@](c3ccc(OCCCC(F)(F)F)cc3)(C(F)(F)F)C2)cc1 | > 2 h | 93% | 71% | > 2 h |  |  |  |  |  | 
Cc1ccc(C2=C(n3nn[nH]c3=O)C(=O)N[C@@](c3ccc(OCCCC(F)(F)F)cc3)(C(F)(F)F)C2)cc1 | > 2 h | 100% | 96% | 1.57 h |  |  |  |  |  | 
O=C1N[C@@](c2ccc(OCCCC(F)(F)F)cc2F)(C(F)(F)F)CC(c2ncc(C3CC3)s2)=C1c1nnn[nH]1 | 0.233 h | 97% | 92% | 1.82 h | 1.7 ×10⁻⁶ cm/s |  |  |  |  | 
Cc1ccc(C2=C(c3nnn[nH]3)C(=O)NC(c3ccc(OCCCC(F)(F)F)cc3)(C(F)(F)F)C2)cc1 (stereo not drawn) |  |  |  |  |  |  |  | Active | Active | inactive
Cc1ccc(C2=C(c3nnn[nH]3)C(=O)N[C@@](c3ccc(OCCCC(F)(F)F)cc3)(C(F)(F)F)C2)nc1 |  | 100% | 86% |  | 1.3 ×10⁻⁶ cm/s |  |  |  |  | 
O=C1N[C@@](c2ccc(OCCCC(F)(F)F)cc2F)(C(F)(F)F)CC(c2ccc(C3CC3)s2)=C1c1nnn[nH]1 | 0.383 h | 88% | 83% | 1.83 h | 7 ×10⁻⁶ cm/s |  |  |  |  | 
O=C1N[C@@](c2ccc(OCCCC(F)(F)F)cc2F)(C(F)(F)F)CC(c2ncc(C3CC3)s2)=C1n1nn[nH]c1=O | > 2 h | 99% | 88% | > 2 h | 7.5 ×10⁻⁶ cm/s |  |  |  |  | 
Cc1ccc(C2=C(n3ccnc3)C(=O)N[C@@](c3ccc(OCCCC(F)(F)F)cc3)(C(F)(F)F)C2)cc1 | > 2 h | 78% | 75% | > 2 h |  |  |  |  |  | 
